Reference: paper PMC8169668, “Discovery of a cooperative mode of inhibiting RIPK1 kinase” (Cell Discovery, 2021)

Assays:
Format in all cases: cell-based
RIPK1 [1] = molecular target: T1, RIPK1 (Homo sapiens, UniProt Q13546, S161A); assay: CETSA; p-S166 autophosphorylation blot
T1 construct: HA-tagged hRIPK1 S161A reconstituted in RIPK1-deficient Jurkat cells
T1 sequence (Q13546 1-671 S161A): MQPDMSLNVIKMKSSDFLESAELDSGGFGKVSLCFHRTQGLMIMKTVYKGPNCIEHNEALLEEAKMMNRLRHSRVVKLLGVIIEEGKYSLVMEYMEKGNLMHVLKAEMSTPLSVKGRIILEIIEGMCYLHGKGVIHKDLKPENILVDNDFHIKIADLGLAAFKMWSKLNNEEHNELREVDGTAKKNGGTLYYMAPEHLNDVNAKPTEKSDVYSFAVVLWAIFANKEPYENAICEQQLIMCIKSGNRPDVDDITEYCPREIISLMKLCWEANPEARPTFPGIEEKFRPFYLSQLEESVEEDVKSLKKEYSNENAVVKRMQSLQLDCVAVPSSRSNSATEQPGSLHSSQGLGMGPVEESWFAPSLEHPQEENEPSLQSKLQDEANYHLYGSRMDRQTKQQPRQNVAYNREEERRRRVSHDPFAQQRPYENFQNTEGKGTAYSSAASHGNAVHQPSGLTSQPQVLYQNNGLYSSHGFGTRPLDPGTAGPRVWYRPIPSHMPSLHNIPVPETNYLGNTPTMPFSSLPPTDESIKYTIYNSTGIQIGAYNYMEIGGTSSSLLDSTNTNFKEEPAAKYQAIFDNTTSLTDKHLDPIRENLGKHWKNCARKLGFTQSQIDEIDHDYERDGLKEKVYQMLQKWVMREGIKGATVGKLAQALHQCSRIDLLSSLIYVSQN

RIPK1 [2] = molecular target: T2, RIPK1 (Homo sapiens, UniProt Q13546, L159V/D180S); assay: p-S166 autophosphorylation blot, dose response
T2 construct: residues 1–330, Flag-tagged, in 293T cells
T2 sequence (Q13546 1-330 L159V/D180S): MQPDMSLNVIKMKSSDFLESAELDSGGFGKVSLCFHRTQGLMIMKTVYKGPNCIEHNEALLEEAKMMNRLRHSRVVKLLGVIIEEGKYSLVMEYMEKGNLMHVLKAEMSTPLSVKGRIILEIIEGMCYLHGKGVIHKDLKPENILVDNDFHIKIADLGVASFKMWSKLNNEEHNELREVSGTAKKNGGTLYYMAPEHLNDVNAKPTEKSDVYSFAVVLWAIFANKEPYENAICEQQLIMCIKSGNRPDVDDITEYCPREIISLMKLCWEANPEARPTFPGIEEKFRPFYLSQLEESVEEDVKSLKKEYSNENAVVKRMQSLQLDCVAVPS

RIPK1 [3] = molecular target: T3, RIPK1 (Mus musculus, UniProt Q60855); assay: CETSA in MEFs; p-S166 blot of mRIPK1-FKBP in L929 cells
T3 construct: endogenous RIPK1 (MEFs)
T3 sequence (Q60855 1-656): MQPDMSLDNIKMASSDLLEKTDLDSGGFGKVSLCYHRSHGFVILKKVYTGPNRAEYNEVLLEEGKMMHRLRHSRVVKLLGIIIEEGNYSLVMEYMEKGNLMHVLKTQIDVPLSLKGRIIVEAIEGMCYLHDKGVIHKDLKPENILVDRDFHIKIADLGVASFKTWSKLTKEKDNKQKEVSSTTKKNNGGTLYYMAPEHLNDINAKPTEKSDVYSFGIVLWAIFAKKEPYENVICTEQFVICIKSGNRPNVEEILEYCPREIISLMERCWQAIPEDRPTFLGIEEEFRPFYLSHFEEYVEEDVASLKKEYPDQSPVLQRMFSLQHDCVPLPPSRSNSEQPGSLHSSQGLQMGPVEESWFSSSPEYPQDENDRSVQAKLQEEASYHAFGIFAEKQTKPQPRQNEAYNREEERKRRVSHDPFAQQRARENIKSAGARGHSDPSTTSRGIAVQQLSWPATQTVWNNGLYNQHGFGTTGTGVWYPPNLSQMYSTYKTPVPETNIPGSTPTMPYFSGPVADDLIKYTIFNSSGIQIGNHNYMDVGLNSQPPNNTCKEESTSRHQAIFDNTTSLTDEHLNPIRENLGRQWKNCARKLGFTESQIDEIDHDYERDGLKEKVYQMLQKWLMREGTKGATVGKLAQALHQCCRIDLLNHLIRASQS

Cc1ccc(C2CC(=O)NC(SCC(=O)Nc3nccs3)=C2C#N)cc1 (stereo not drawn) [Nec-34]
CETSA; p-S166 autophosphorylation blot (RIPK1 [1]): Nec-34 stabilized reconstituted S161A mutant RIPK1 as well as WT-RIPK1 in the soluble fraction under elevated temperatures
p-S166 autophosphorylation blot, dose response (RIPK1 [2]): Nec-34 was more potent in inhibiting L159V/D180S hRIPK1 than WT-hRIPK1
CETSA in MEFs; p-S166 blot of mRIPK1-FKBP in L929 cells (RIPK1 [3]): Nec-34 is able to bind endogenous RIPK1 in situ to increase its thermo-resistance
